Laboratory results from patent US4382142A, “Thiadiazole derivatives and process for preparing same” (Kowa Co., Ltd., priority 1978, dated 1983).
Structures can show the parent of a compound that is named as a salt. Where two headings read alike, the source gives them in different places.

Assays:
[1] = Acute toxicity (LD50, Litchfield-Wilcoxon method) after intraperitoneal injection in ddy mice; details: mouse, in vivo, ip
Protocol: The median lethal dose (LD50) of each of the test compounds was
determined by the LitchfieldWilcoxon method after the intraperitoneal
injection of the compound into ddy mice.

P388 leukemia = assay: Antitumor test: survival of CDF1 mice inoculated intraperitoneally with P388 leukemia; assay type: in vivo; details: Mus musculus, ip, i.p., 24 hours and 5 days after inoculation, 10^6 P388 i.p., read-out: Survival Effect (survival days of treated relative to control animals); for response vs control in vivo at 200 mg/kg: 200 mg/kg/day; for response vs control in vivo at 400 mg/kg: 400 mg/kg/day
Protocol: Each experimental group was composed of six CDF1 mice. The mice were
inoculated intraperitoneally with 10^6 P388 leukemia, and the test
compounds dissolved in a physiological salt solution were administered
intraperitoneally to the animals 24 hours and 5 days, respectively, after
the inoculation. The survival effect of each of the compounds was
expressed by the percentage of the survival days of the treated animals i
each group relative to those of the control animals.

[2] = intraperitoneal, ddy mice, read-out: Acute Toxicity LD50

| Structure (SMILES) | LD50 [1] | response vs control in vivo at 200 mg/kg (P388 leukemia) | response vs control in vivo at 400 mg/kg (P388 leukemia) | LD50 [1, 2] | response vs control in vivo at 460 mg/kg (P388 leukemia; 460 mg/kg/day) | response vs control in vivo at 600 mg/kg (P388 leukemia; 600 mg/kg/day) | response vs control in vivo at 100 mg/kg (P388 leukemia; 100 mg/kg/day) |
| --- | --- | --- | --- | --- | --- | --- | --- |
| CC(C)C[C@@H](N)C(=O)Nc1nncs1 [C, 2D-Leucylamino-1,3,4-thiadiazole.hydrochloride] | > 500 mg/kg | 116% | 157% | – | – | – | – |
| CSCCC(N)C(=O)Nc1nncs1 (stereo not drawn) [H, 2DL-Methionylamino-1,3,4-thiadiazole.hydrochloride] | > 1600 mg/kg | 121% | 124% | – | – | – | – |
| CC(C)C[C@H](N)C(=O)Nc1nncs1 [B, 2L-Leucylamino-1,3,4-thiadiazole.hydrochloride] | > 500 mg/kg | 144% | 161% | – | – | – | – |
| CC(C)[C@@H](N)C(=O)Nc1nncs1 [G, 2D-Valylamino-1,3,4-thiadiazole.hydrochloride] | > 500 mg/kg | 93% | 102% | – | – | – | – |
| NC(C(=O)Nc1nncs1)c1ccccc1 (stereo not drawn) [I, 2Dl-Phenylglycylamino-1,3,4-thiadiazole.hydrobromide] | > 1600 mg/kg | 125% | 146% | – | – | – | – |
| CC(C)CC(N)C(=O)Nc1nncs1 (stereo not drawn) [A, 2DL-Leucylamino-1,3,4-thiadiazole.hydrochloride] | > 1600 mg/kg | 141% | 154% | – | – | – | – |
| N[C@@H](Cc1ccccc1)C(=O)Nc1nncs1 [M, 2L-Phenylalanylamino-1,3,4-thiadiazole.hydrobromide] | – | 145% | 156% | 1200 mg/kg | – | – | – |
| CC(C)[C@H](N)C(=O)Nc1nncs1 [F, 2L-Valylamino-1,3,4-thiadiazole.hydrochloride] | > 500 mg/kg | 183% | 190% | – | – | – | – |
| N[C@@H](CC(=O)O)C(=O)Nc1nncs1 [K, 2L-Aspartylamino-1,3,4-thiadiazole.monohydrate] | > 1600 mg/kg | – | – | – | 116% | 119% | – |
| NC1(C(=O)Nc2nncs2)CCCC1 [J, 2Cycloleucylamino-1,3,4-thiadiazole.hydrochloride] | 165 mg/kg | – | – | – | – | – | 153% |
| N[C@@H](Cc1c[nH]c2ccccc12)C(=O)Nc1nncs1 [L, 2L-Tryptophylamino-1,3,4-thiadiazole.hydrochloride] | – | 143% | 151% | 1200 mg/kg | – | – | – |
| CCC(C)C(N)C(=O)Nc1nncs1 (stereo not drawn) [D, 2DL-Isoleucylamino-1,3,4-thiadiazole.dihydrochloride] | 357 mg/kg | 157% | – | – | – | – | – |
| CC(C)C(N)C(=O)Nc1nncs1 (stereo not drawn) [E, 2DL-Valylamino-1,3,4-thiadiazole.hydrochloride] | > 1600 mg/kg | 143% | 155% | – | – | – | – |
